The results in this text go back to ChEMBL document CHEMBL5724914, “Linking interpersonal differences in gut microbiota composition and drug biotransformation activity” (2024).

Data set [1] in a line: The drug is tested on Z-026 corresponding to metagenome with ENA study accession number: PRJEB37062 and ENA sample accession number: ERS12561825 for biotransformation under anaerobic condition. The drug concentrations were measured over 9 timepoints collected between 0 and 24 hours of incubation by liquid-chromatography-coupled mass spectrometry (LC–MS). The conditions noted are these: 2 µM.

Data set [2] can be described thus: The drug is tested on Z-019 corresponding to rat gut metagenome with ENA study accession number: PRJEB37062 and ENA sample accession number: ERS12561818 for biotransformation under anaerobic condition. The drug concentrations were measured over 9 timepoints collected between 0 and 24 hours of incubation by liquid-chromatography-coupled mass spectrometry (LC–MS). The conditions noted are these: 2 µM.

Data set [3] is described as follows: The drug is tested on Z-017 corresponding to mouse gut metagenome with ENA study accession number: PRJEB37062 and ENA sample accession number: ERS12561816 for biotransformation under anaerobic condition. The drug concentrations were measured over 9 timepoints collected between 0 and 24 hours of incubation by liquid-chromatography-coupled mass spectrometry (LC–MS). Particulars: 2 µM.

Data set [4] can be described thus: The drug is tested on Z-014 corresponding to rat gut metagenome with ENA study accession number: PRJEB37062 and ENA sample accession number: ERS12561814 for biotransformation under anaerobic condition. The drug concentrations were measured over 9 timepoints collected between 0 and 24 hours of incubation by liquid-chromatography-coupled mass spectrometry (LC–MS). The conditions noted are these: 2 µM.

Data set [5] in a line: The drug is tested on Z-013 corresponding to rabbit gut metagenome with ENA study accession number: PRJEB37062 and ENA sample accession number: ERS12561813 for biotransformation under anaerobic condition. The drug concentrations were measured over 9 timepoints collected between 0 and 24 hours of incubation by liquid-chromatography-coupled mass spectrometry (LC–MS). The conditions noted are these: 2 µM.

Data set [6] is described as follows: The drug is tested on Z-006 corresponding to mouse gut metagenome with ENA study accession number: PRJEB37062 and ENA sample accession number: ERS12561806 for biotransformation under anaerobic condition. The drug concentrations were measured over 9 timepoints collected between 0 and 24 hours of incubation by liquid-chromatography-coupled mass spectrometry (LC–MS). The conditions noted are these: 2 µM.

The nature of data set [7]: The drug is tested on WLS-240 corresponding to human gut metagenome with ENA study accession number: PRJEB37062 and ENA sample accession number: ERS12561773 for biotransformation under anaerobic condition. The drug concentrations were measured over 9 timepoints collected between 0 and 24 hours of incubation by liquid-chromatography-coupled mass spectrometry (LC–MS). The conditions noted are these: 2 µM.

Data set [8] can be described thus: The drug is tested on WLS-170 corresponding to human gut metagenome with ENA study accession number: PRJEB37062 and ENA sample accession number: ERS12561762 for biotransformation under anaerobic condition. The drug concentrations were measured over 9 timepoints collected between 0 and 24 hours of incubation by liquid-chromatography-coupled mass spectrometry (LC–MS). The conditions noted are these: 2 µM.

The nature of data set [9]: The drug is tested on WLS-077 corresponding to human gut metagenome with ENA study accession number: PRJEB37062 and ENA sample accession number: ERS12561750 for biotransformation under anaerobic condition. The drug concentrations were measured over 9 timepoints collected between 0 and 24 hours of incubation by liquid-chromatography-coupled mass spectrometry (LC–MS). The conditions noted are these: 2 µM.

Data set [10] in a line: The drug is tested on WLS-027 corresponding to human gut metagenome with ENA study accession number: PRJEB37062 and ENA sample accession number: ERS12561744 for biotransformation under anaerobic condition. The drug concentrations were measured over 9 timepoints collected between 0 and 24 hours of incubation by liquid-chromatography-coupled mass spectrometry (LC–MS). Particulars: 2 µM.

The conditions of data set [11]: human gut metagenome, 24 h, 2 µM.
For data set [12] the following is noted: human gut metagenome, 24 h, 2 µM. This is another data set of the same source.
For data set [13] the following is noted: human gut metagenome, 24 h, 2 µM. This is another data set of the same source.
The conditions of data set [14]: human gut metagenome, 24 h, 2 µM. The source holds these as a separate data set.
For data set [15] the following is noted: human gut metagenome, 24 h, 2 µM. This is another data set of the same source.
For data set [16] the following is noted: human gut metagenome, 24 h, 2 µM. The source holds these as a separate data set.
The conditions of data set [17]: human gut metagenome, 24 h, 2 µM. The source holds these as a separate data set.
The conditions of data set [18]: human gut metagenome, 24 h, 2 µM. The source holds these as a separate data set.
The conditions of data set [19]: human gut metagenome, 24 h, 2 µM. The source holds these as a separate data set.
The conditions of data set [20]: human gut metagenome, 24 h, 2 µM. This is another data set of the same source.

Molecules are shown by their SMILES.
Further: call rule not given here.

For the compound `COc1ccc2c(c1OC)C(=O)O[C@@H]2[C@H]1c2c(cc3c(c2OC)OCO3)CCN1C` [NOSCAPINE], the “Bacterial Biotransformation” value in data set [1] was “Compound NOT metabolized”; in data set [2], “Compound NOT metabolized”; in data set [3], “Compound NOT metabolized”; in [4], “Compound metabolized”; in [5], “Compound NOT metabolized”; in data set [6], “Compound NOT metabolized”. For the same compound, the “Bacterial Biotransformation” value in data set [7] is listed as “Compound metabolized”; in data set [8] it was “Compound metabolized”; in [9] it was “Compound metabolized”; in data set [10] it was “Compound NOT metabolized”; in data set [11], “Compound NOT metabolized”; in [12] it was “Compound NOT metabolized”. Moreover, the “Bacterial Biotransformation” value in data set [13] is “Compound metabolized”; in [14], “Compound NOT metabolized”; in data set [15] it was “Compound metabolized”; in [16], “Compound metabolized”; in data set [17] it was “Compound NOT metabolized”; in [18], “Compound NOT metabolized”. Besides, the “Bacterial Biotransformation” value in data set [19] and in data set [20] was “Compound NOT metabolized” in each case.

For `CCCc1nc(C(C)(C)O)c(C(=O)OCc2oc(=O)oc2C)n1Cc1ccc(-c2ccccc2-c2nnn[nH]2)cc1` [OLMESARTAN MEDOXOMIL], the “Bacterial Biotransformation” value in data set [1] was “Compound NOT metabolized”; in data set [2], “Compound NOT metabolized”; in data set [3], “Compound metabolized”; in [4], “Compound NOT metabolized”; in data set [5], “Compound metabolized”; in [6], “Compound metabolized”. The “Bacterial Biotransformation” value in data set [7] is “Compound NOT metabolized”; in [8], “Compound metabolized”; in data set [9] it was “Compound metabolized”; in [10] it was “Compound metabolized”; in data set [11], “Compound metabolized”; in data set [12], “Compound metabolized”. The “Bacterial Biotransformation” value was “Compound metabolized” in data set [13]; “Compound NOT metabolized” in data set [14]; “Compound NOT metabolized” in data set [15]; “Compound metabolized” in data set [16]; “Compound metabolized” in [17]; “Compound NOT metabolized” in data set [18]. The “Bacterial Biotransformation” value in data set [19] and in data set [20] was “Compound metabolized” in each case.

As for `NC(=O)N1c2ccccc2CC(=O)c2ccccc21` [OXCARBAZEPINE], the “Bacterial Biotransformation” value in data set [1], in data set [2], in [3], in data set [4], in data set [5] and in data set [6] was “Compound NOT metabolized” throughout. For the same compound, the “Bacterial Biotransformation” value in [7], in data set [8], in data set [9], in data set [10], in data set [11] and in data set [12] was “Compound NOT metabolized” each time. Also, the “Bacterial Biotransformation” value in data set [13], in data set [14], in [15], in data set [16], in data set [17] and in data set [18] was “Compound NOT metabolized” each time. The “Bacterial Biotransformation” value in data set [19] and in data set [20] was “Compound NOT metabolized” in each case.

As for `CCN(CC)CC#CCOC(=O)C(O)(c1ccccc1)C1CCCCC1.Cl` (stereo not given) [OXYBUTYNIN CHLORIDE], the “Bacterial Biotransformation” value in data set [1], in data set [2], in data set [3], in [4], in [5] and in [6] was “Compound NOT metabolized” each time. Also, the “Bacterial Biotransformation” value in data set [7], in data set [8], in data set [9], in data set [10], in data set [11] and in data set [12] was “Compound metabolized” in each case. Also, the “Bacterial Biotransformation” value in data set [13] was “Compound metabolized”; in data set [14], “Compound metabolized”; in [15], “Compound metabolized”; in data set [16], “Compound metabolized”; in data set [17], “Compound metabolized”; in data set [18] it was “Compound NOT metabolized”. Moreover, the “Bacterial Biotransformation” value in data set [19] and in data set [20] was “Compound metabolized” throughout.

Regarding `Fc1ccc([C@@H]2CCNC[C@H]2COc2ccc3c(c2)OCO3)cc1` [PAROXETINE], the “Bacterial Biotransformation” value in data set [1], in data set [2], in data set [3], in data set [4], in data set [5] and in data set [6] was “Compound NOT metabolized” in each case. In addition, the “Bacterial Biotransformation” value in data set [7] is on record as “Compound metabolized”; in data set [8], “Compound metabolized”; in data set [9], “Compound NOT metabolized”; in [10] it was “Compound metabolized”; in data set [11] it was “Compound NOT metabolized”; in [12] it was “Compound metabolized”. In addition, the “Bacterial Biotransformation” value in [13] is on record as “Compound metabolized”; in data set [14] it was “Compound NOT metabolized”; in data set [15], “Compound metabolized”; in [16], “Compound metabolized”; in data set [17], “Compound NOT metabolized”; in data set [18] it was “Compound NOT metabolized”. In addition, the “Bacterial Biotransformation” value in data set [19] and in data set [20] was “Compound metabolized” in each case.
